Source: ChEMBL document CHEMBL1149219, “Binding of beta-carbolines at imidazoline I2 receptors: a structure-affinity investigation” (Bioorg Med Chem Lett, 2004)

Legend:
[1] = Binding affinity at rat imidazoline receptor I-2
[2] = target: T1, Adrenergic receptor alpha-2 (Rattus norvegicus, UniProt P22086+P19328+P22909); assay: Binding affinity at alpha-2 adrenergic receptors of rat.; assay type: protein assay
T1 sequence (P22086 whole entry): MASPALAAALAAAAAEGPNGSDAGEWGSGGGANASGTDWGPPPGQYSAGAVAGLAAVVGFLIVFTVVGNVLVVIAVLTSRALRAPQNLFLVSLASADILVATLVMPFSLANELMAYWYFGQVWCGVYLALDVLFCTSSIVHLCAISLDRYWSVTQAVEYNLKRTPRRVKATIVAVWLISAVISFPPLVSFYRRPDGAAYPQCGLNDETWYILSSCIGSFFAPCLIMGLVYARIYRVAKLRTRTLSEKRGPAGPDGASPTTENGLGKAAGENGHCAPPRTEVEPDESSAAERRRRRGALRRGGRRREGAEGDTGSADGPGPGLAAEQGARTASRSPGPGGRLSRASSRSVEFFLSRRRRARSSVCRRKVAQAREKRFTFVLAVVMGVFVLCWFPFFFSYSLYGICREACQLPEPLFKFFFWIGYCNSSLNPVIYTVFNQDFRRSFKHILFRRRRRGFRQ
T1 sequence (P19328 whole entry): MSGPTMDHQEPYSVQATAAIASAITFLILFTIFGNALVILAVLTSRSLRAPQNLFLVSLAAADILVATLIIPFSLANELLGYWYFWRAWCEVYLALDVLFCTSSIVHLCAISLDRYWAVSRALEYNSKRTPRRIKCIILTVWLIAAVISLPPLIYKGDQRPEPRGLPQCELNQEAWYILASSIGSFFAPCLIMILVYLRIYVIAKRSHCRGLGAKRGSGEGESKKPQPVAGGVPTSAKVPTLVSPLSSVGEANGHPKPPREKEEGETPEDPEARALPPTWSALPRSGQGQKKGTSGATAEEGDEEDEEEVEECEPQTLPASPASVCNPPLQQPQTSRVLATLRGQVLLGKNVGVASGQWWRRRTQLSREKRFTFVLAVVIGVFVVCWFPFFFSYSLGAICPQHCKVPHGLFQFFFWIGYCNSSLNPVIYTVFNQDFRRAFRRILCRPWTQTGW
T1 sequence (P22909 whole entry): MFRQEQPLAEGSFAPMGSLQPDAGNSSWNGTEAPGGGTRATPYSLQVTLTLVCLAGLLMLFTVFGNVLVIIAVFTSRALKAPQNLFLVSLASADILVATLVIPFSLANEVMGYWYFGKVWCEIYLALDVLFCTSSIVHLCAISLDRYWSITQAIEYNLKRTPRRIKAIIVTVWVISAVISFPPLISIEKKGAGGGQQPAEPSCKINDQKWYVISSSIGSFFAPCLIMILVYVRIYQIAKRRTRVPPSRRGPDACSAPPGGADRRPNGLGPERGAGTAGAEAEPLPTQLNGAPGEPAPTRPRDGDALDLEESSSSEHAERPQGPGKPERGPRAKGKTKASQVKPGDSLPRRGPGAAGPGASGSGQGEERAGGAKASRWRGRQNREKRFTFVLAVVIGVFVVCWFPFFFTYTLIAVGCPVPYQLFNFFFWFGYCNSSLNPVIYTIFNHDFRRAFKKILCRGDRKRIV

[3] = target: 5-hydroxytryptamine receptor 2A (Rattus norvegicus, UniProt P14842); assay: Binding affinity at 5-hydroxytryptamine 2A receptor of rat.
Sequence of 5-hydroxytryptamine receptor 2A (P14842 whole entry): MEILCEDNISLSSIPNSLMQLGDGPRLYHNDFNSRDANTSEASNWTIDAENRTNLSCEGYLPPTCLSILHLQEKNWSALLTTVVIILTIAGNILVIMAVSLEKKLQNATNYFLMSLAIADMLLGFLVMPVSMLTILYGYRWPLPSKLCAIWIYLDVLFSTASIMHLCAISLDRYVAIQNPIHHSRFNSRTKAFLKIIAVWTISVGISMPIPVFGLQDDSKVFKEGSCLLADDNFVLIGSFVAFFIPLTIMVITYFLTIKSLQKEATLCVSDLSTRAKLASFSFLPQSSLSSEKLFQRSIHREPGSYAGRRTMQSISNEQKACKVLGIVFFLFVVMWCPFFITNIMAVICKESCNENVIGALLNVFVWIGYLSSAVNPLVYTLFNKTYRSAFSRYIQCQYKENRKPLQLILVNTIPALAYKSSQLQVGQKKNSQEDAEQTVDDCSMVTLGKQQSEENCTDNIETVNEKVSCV

[4] = target: T2, Alpha-2B adrenergic receptor (Rattus norvegicus, UniProt P19328); assay: Binding affinity at alpha 2B adrenergic receptor of rat.
T2 sequence (P19328 whole entry): T1 sequence (P19328 whole entry)

[5] = target: T3, Alpha-2A adrenergic receptor (Rattus norvegicus, UniProt P22909); assay: Binding affinity at alpha-2 adrenergic receptor of rat.
T3 sequence (P22909 whole entry): T1 sequence (P22909 whole entry)

Row | SMILES | Ki [1] [nM] | Ki [2] [nM] | Ki [3] [nM] | Ki [4] [nM] | Ki [5] [nM]
1 | Cn1c2c(c3ccccc31)CCNC2 | 5.4 |  |  |  | 
2 | COc1ccc2[nH]c3c(c2c1)CCNC3 | 1640 | 7830 |  |  | 
3 | C1=NCCc2c1[nH]c1ccccc21 | 7.3 | 700 |  |  | 
4 | Brc1cccc2[nH]c3c(c12)CCN=C3 | 86 | 3160 | 180 |  | 
5 | COc1cc(Br)c2c3c([nH]c2c1)CNCC3 | 1740 |  |  |  | 
6 | c1ccc2c3c([nH]c2c1)CCNC3 | 4.7 | 600 |  |  | 
7 | COc1cccc2c3c([nH]c12)C=NCC3 | 160 | 5020 |  |  | 
8 | COc1cccc2c3c([nH]c12)CNCC3 | 270 | 640 |  |  | 
9 | Brc1ccc2c3c([nH]c2c1)C=NCC3 | 400 | 10700 |  |  | 
10 | Brc1ccc2c3c([nH]c2c1)CNCC3 | 1290 | 15500 |  |  | 
11 | COc1ccc2c3c([nH]c2c1)CNCC3 |  |  | > 1000 | 140 | 
12 | Brc1cccc2[nH]c3c(c12)CCNC3 | 5.4 | 390 |  |  | 
13 | Brc1ccc2[nH]c3c(c2c1)CCNC3 | 2780 | 11500 |  |  | 
14 | COc1ccc2c(c1)[nH]c1cnccc12 | 87 |  |  |  | 
15 | NCc1c[nH]c2ccccc12 | 3440 | 14700 |  |  | 
16 | COc1cccc2[nH]c3c(c12)CCNC3 | 300 | 825 |  |  | 
17 | COc1cccc2[nH]c3c(c12)CCN=C3 | 84 | 330 |  |  | 
18 | Brc1ccc2[nH]c3c(c2c1)CCN=C3 | 790 | 5290 |  |  | 
19 | COc1ccc2[nH]c3c(c2c1)CCN=C3 | 480 | 2190 |  |  | 
20 | Brc1cccc2c3c([nH]c12)C=NCC3 | 17 | 815 |  |  | 
21 | Brc1cccc2c3c([nH]c12)CNCC3 | 3.6 |  |  |  | 460
22 | COc1ccc2c3c([nH]c2c1)C=NCC3 [CGS-19281A] | 18 | > 10000 |  |  | 
23 | COc1ccc2c(c1)[nH]c1c(C)nccc12 [HARMINE] | 49 |  |  |  | 
24 | Cn1c2c(c3ccccc31)CCNCC2 [PNU-22394] | 1030 | 415 |  |  | 
25 | NCCc1c[nH]c2ccccc12 [TRYPTAMINE] | 5400 | 19000 |  |  | 
26 | c1ccc2c3c([nH]c2c1)CNCC3 [TRYPTOLINE] | 9.4 |  |  |  | 
